Like-named read-outs stand apart in the source and are kept apart here. Marks after values point to notes of the source that are not given here. Residues, ends and D or L forms follow the SMILES beside them.
How the values were obtained:
E. coli 8739 (NCIM 2065) = format: cell-based, Escherichia coli; details: for MIC (*50% inhibition): starred value: 50% inhibition only; for inhibition at 100 microM: 8739 (NCIM 2065, 18 h, 100 microM)
Method: (§1) Antimicrobial activity of the synthesized peptides was determined by broth microdilution assay and evaluated based on minimum inhibitory concentration (MIC). […] Gram negative microorganisms (Escherichia coli ATCC 8739, Escherichia coli ATCC 25922) were grown in Mueller-Hinton (MH) broth at 37 °C for 18h on a shaker to obtain an OD600nm of 0.8. Bacterial cultures were diluted in MH broth to obtain a cell density of 10^5–10^6 c.f.u/ml. Different concentrations of peptides, ranging from 1–100 μM were serially diluted in MH broth and inoculated with bacterial cultures in 1:1 ratio in sterile 96-well microtiter plates. The plates were incubated at 37 °C for 18h and antimicrobial activity was evaluated as MIC of the peptides by determining the absorbance at 600nm. The microorganisms were obtained from National Collection of Industrial Microorganisms (NCIM), Pune.

[1] = tested on: E. coli 25922 (NCIM 2931); format: cell-based, Escherichia coli; details: for MIC (*50% inhibition): starred value: 50% inhibition only
Method: as §1

[2] = Escherichia coli ATCC 8739, MH broth, 37 °C 18h, absorbance at 600nm, average range, triplicates of three independent experiments
[3] = Escherichia coli ATCC 25922, complete growth inhibition, MH broth, 10^5–10^6 c.f.u/ml, peptides 1–100 μM, 37 °C 18h, absorbance at 600nm, average range, triplicates of three independent experiments
[4] = Escherichia coli ATCC 8739, complete growth inhibition, MH broth, 10^5–10^6 c.f.u/ml, peptides 1–100 μM, 37 °C 18h, absorbance at 600nm, average range, triplicates of three independent experiments
[5] = Escherichia coli ATCC 25922, MH broth, 37 °C 18h, absorbance at 600nm, average range, triplicates of three independent experiments

Compound | MIC (*50% inhibition) (E. coli 8739 (NCIM 2065); [2]) | MIC [1, 3] | antimicrobial activity (in words) (E. coli 8739 (NCIM 2065); Escherichia coli ATCC 8739) | MIC (E. coli 8739 (NCIM 2065); [4]) | antimicrobial activity (in words) ([1]; Escherichia coli ATCC 25922) | inhibition at 100 microM (E. coli 8739 (NCIM 2065)) [%] | MIC (*50% inhibition) [1, 5] | MIC (E. coli 8739 (NCIM 2065); 8739 (NCIM 2065, 18 h)) [µM] | also measured
PLSCRRKIGICVLIRCSGNMRQIGTCLGALVKCCR [DefH, 35-residue defensin family peptide retrieved using HMMs, Class II; N-acetylated, C-amidated] | 50–100* microM | NA (Did not show activity upto 100 microM) | – | – | – | – | – | – | –
WQRMRKL [LactP, N-acetylated, C-amidated] | – | NA (Did not show activity upto 100 microM) | lacks activity | NA (Did not show activity upto 100 microM) | lacks activity | – | – | – | –
CSCC[C@H](NC(=O)[C@H](CCCNC(=N)N)NC(=O)[C@H](CCC(N)=O)NC(=O)[C@H](Cc1c[nH]c2ccccc12)NC(=O)[C@H](CO)NC(=O)[C@H](CCC(N)=O)NC(=O)[C@H](CCCCN)NC(C)=O)C(=O)N[C@@H](CCCNC(=N)N)C(=O)N[C@@H](CCCCN)C(=O)N[C@@H](CC(C)C)C(=O)N[C@@H](C)C(=O)N[C@@H](CC(C)C)C(=O)N[C@@H](CCCCN)C(=O)N[C@@H](CCCNC(=N)N)C(N)=O [LactP1] (Ac-KQSWQRMRKLALKR-NH2) | 50–100* microM | – | – | – | – | 50 | 50–100* microM | – | inhibition at 100 microM ([1]; 25922 (NCIM 2931, 18 h, 100 microM)): 50%
CSCC[C@H](NC(=O)[C@H](CCCNC(=N)N)NC(=O)[C@H](CCC(N)=O)NC(=O)[C@H](Cc1c[nH]c2ccccc12)NC(=O)[C@H](CO)NC(=O)[C@H](CCC(N)=O)NC(=O)[C@H](CCCCN)NC(=O)[C@H](CC(C)C)NC(=O)[C@H](CCC(=O)O)NC(=O)[C@H](CCC(=O)O)NC(=O)[C@H](CCCNC(=N)N)NC(=O)[C@H](CCCNC(=N)N)NC(=O)[C@H](CCCNC(=N)N)NC(=O)[C@H](CCCNC(=N)N)NC(C)=O)C(=O)N[C@@H](CCCNC(=N)N)C(=O)N[C@@H](CCCCN)C(=O)N[C@@H](CC(C)C)C(=O)N[C@@H](C)C(=O)N[C@@H](CC(C)C)C(=O)N[C@@H](CCCCN)C(=O)N[C@@H](CCCNC(=N)N)C(N)=O [LactP2] (Ac-RRRREELKQSWQRMRKLALKR-NH2) | – | – | – | – | – | 100 | 50–100* microM | 50 to 100 | –
Gentamycin [reference compound] | – | 1.56 to 3.125 µM | – | 1.56 to 3.125 µM | – | – | – | – | –
CC[C@H](C)[C@H](NC(=O)CNC(=O)[C@H](CC(=O)O)NC(=O)[C@H](CCCNC(=N)N)NC(=O)[C@@H](NC(=O)[C@H](CC(N)=O)NC(=O)[C@H](CCCNC(=N)N)NC(=O)CNC(=O)[C@@H](NC(=O)[C@H](CCCCN)NC(=O)[C@H](CCC(=O)O)NC(=O)[C@@H](NC(=O)[C@H](CCCCN)NC(=O)[C@H](CCCCN)NC(=O)[C@H](Cc1ccccc1)NC(=O)[C@@H](NC(=O)[C@H](CCCCN)NC(C)=O)[C@@H](C)CC)[C@@H](C)CC)C(C)C)C(C)C)C(=O)N[C@H](C(=O)N[C@@H](CCCCN)C(=O)N[C@@H](C)C(=O)NCC(=O)N1CCC[C@H]1C(=O)N[C@@H](C)C(=O)N[C@H](C(=O)N[C@@H](C)C(=O)N[C@H](C(=O)N[C@H](C(=O)N[C@@H](CCC(=O)O)C(=O)N[C@@H](CCC(N)=O)C(=O)N[C@@H](C)C(N)=O)C(C)C)C(C)C)C(C)C)[C@@H](C)CC [CecH] (Ac-KIFKKIEKVGRNVRDGIIKAGPAVAVVEQA-NH2) | – | – | activity similar to that of gentamycin | – | activity similar to that of gentamycin | – | – | 3.125 to 6.25 | MIC ([1]; 25922 (NCIM 2931, 18 h)): 6.25 to 12.5 µM

— publication PMC4836297, “Leveraging family-specific signatures for AMP discovery and high-throughput annotation” (Scientific Reports, 2016)
